Assay results from US8175808B2, “Method for determining disease treatment duration” (Sloan Kettering Institute for Cancer Research, priority 2005, dated 2012).

How the values were obtained:
[1] = system: MX-1 or MAXF401 human breast cancer xenografts; test: Tumor volume growth in mice bearing human breast cancer xenografts; drug effect DE(t) and time point of maximum impact (TPMI) from Gompertzian/polynomial fits; format: in vivo; conditions: for maximum drug effect, DE(TPMI): dimensionless; for elapsed time to zero crossing of derivative DE'(t) (TPMI) / elapsed time after start of treatment to relative maximum in DE(t) (TPMI): pooled data, 14 days on/7 off; for elapsed time after start of treatment to relative maximum in DE(t) (TPMI): first cycle
Text: The untreated series of measurements reveal the progression of the disease without treatment, and therefore it is not obtained from a patient to be treated using the method. Typically the untreated series of measurements describes the progression of the disease in one or more historical cases, or test subjects, or both. For example, the untreated series of measurements describes the progression of tumor volume with time in breast cancer victims who are not treated for some number of weeks. In the illustrated embodiment, described further in later sections, the untreated series of measurements describe tumor volume in mice bearing MX-1 or MAXF401 human breast cancer xenografts approximately every two days for about seven weeks (50 days). FIG. 2A is a graph 210 that illustrates, as solid-filled circles 216, pooled measurements of tumor volume growth for untreated breast cancer in xenograft models (MX-1). Untreated tumor growth is sometimes called “naïve growth.” The horizontal axis 212 indicates the passage of time in days since an initial time. The vertical axis 214 indicates the tumor volume in cubic millimeters (mm^3). The solid trace 218 represents a model fit to the data as described in more detail below.
In the illustrated embodiment, described further in later sections, two treated series of measurements describe tumor volume in mice bearing MX-1 or MAXF401 human breast cancer xenografts approximately every two days for about seven weeks (50 days) during treatment. The treatment involves administering the drug XELODA according to the standard protocol: a 14-day duration of administering the drug at a particular dose, followed by a 7 day hiatus in administering the drug. One treatment uses a lower dose of 1.5 millimoles (mmol) per kilogram (kg) of victim weight per day (mmol/kg/day). A second treatment uses a higher dose of 2.25 mmol/kg/day. Each of the two treated series describes the progression of tumor volume with time in the treated victim of the disease, and includes an initial measurement of tumor volume at or near when the treatment was started, for example just before the first injection of the drug. The initial measurement is used in a later step to relate a treated series to the untreated series, which typically occur in different subjects.
In step 130, a temporal series of effectiveness values is determined. Any method may be used to determine an effectiveness value. In the illustrated embodiment, each effectiveness value indicates the ratio between the rate of change of the physical property for the treated disease and the rate of change for the untreated disease at a corresponding time. For purposes of illustration, it is assumed that the temporal progression of the physical property for the untreated disease is represented by the function Pu(t) and that its rate of change is given by its first time derivative Pu′(t). Similarly, it is assumed that the temporal progression of the physical property for the treated disease is represented by the function Pt(t) and that its rate of change is given by its first time derivative Pt′(t). It is further assumed that the temporal progression of the ratio is represented by the function R(t) and is given by Equation 1 R(t)=Pt′(t)/Pu′(t) (1). In other embodiments, a different definition of ratio is used. For example, in some embodiments the ratio given by the reciprocal of R(t) is used. In the illustrated embodiments, R is the ratio of two physical properties with the same units and is therefore dimensionless.
An effectiveness parameter is often defined that indicates the ratio R(t) but offers a more useful description of the effect of a treatment than the ratio itself. […]

[2] = system: MX-1 or MAXF401 human breast cancer xenografts; conditions: 6 weeks, CDS (days on/off) 14/7, 5/2, 2/5, 7/7, 4 dose levels plus control; Yanagisawa, Proc. AACR 2004; cited from earlier work

With `CCCCCOC(=O)Nc1nc(=O)n([C@@H]2O[C@H](C)[C@@H](O)[C@H]2O)cc1F` [capecitabine] the “maximum drug effect, DE(TPMI)” value ([1]; 7-day duration/7-day hiatus, high dose 2.5 mmol/kg/day) was “about 0.8”, the “maximal DE, 7 on/7 off CDS compared with 14 on/7 off CDS” value ([1]; follow-up experiment, higher daily dose with 7 on/7 off) was “increased maximal DE” and the “elapsed time to zero crossing of derivative DE'(t) (TPMI)” value ([1]; higher dose 2.25 mmol/kg/day) was 8.3 days. For the same compound, the “elapsed time after start of treatment to relative maximum in DE(t) (TPMI)” value ([1]; higher dose 2.25 mmol/kg/day) was 8 days, the “elapsed time to zero crossing of derivative DE'(t) (TPMI)” value ([1]; lower dose 1.5 mmol/kg/day) was 10.1 days and the “elapsed time after start of treatment to relative maximum in DE(t) (TPMI)” value ([1]; lower dose 1.5 mmol/kg/day) was 10 days. For the same compound, the “time point of maximum impact (TPMI), averaged, days into therapy” value ([1]; pooled mice, dose levels analyzed (1.5 and 2.25 mmol/kg/day), 14/7 CDS) was 8.3 to 10.1 days, the “maximum drug effect, DE(TPMI)” value ([1]; standard protocol, 14-day duration/7-day hiatus) was “about 0.65” and the “effectiveness of CDS regimens” value [2] was “all were effective at an appropriate dose”.
